In ChEMBL document CHEMBL5390220, “SAR study of niclosamide derivatives for neuroprotective function in SH-SY5Y neuroblastoma” (Bioorg Med Chem Lett, 2023):
Calls of active or inactive are those of the source. The rule behind the calls is not given here.

Assays:
Format in all cases: functional, cell-based
SH-SY5Y [1] = test: Neuroprotective activity against human SH-SY5Y cells assessed as inhibition of p53 expression incubated for 24 hrs in presence of MG132 by Western blot analysis
SH-SY5Y [2] = test: Neuroprotective activity against human SH-SY5Y cells assessed as reduction in protein ubiquitination level incubated for 24 hrs in presence of MG132 by Western blot analysis
SH-SY5Y [3] = test: Neuroprotective activity against human SH-SY5Y cells assessed as reduction in cleaved PARP level incubated for 24 hrs in presence of MG132 by Western blot analysis
SH-SY5Y [4] = test: Neuroprotective activity against human SH-SY5Y cells assessed as reduction in cyclin D expression incubated for 24 hrs in presence of MG132 by Western blot analysis
SH-SY5Y [5] = test: Neuroprotective activity against human SH-SY5Y cells assessed as inhibition of CHOP expression incubated for 24 hrs in presence of MG132 by Western blot analysis

Compound | inhibition (SH-SY5Y [1]) | Activity (SH-SY5Y [2]) | Activity (SH-SY5Y [3]) | Activity (SH-SY5Y [4]) | inhibition (SH-SY5Y [5])
[N-]=[N+]=Nc1ccc(NC(=O)c2cc(Cl)ccc2O)c(Cl)c1 | Active | Active | Active | Active | Active
O=C(Nc1ccc([N+](=O)[O-])cc1Cl)c1ccccc1O | Active |  |  | Active | Active
O=C(Nc1ccccc1)c1cc(Cl)ccc1O | inactive |  |  |  | 
CC(=O)Nc1ccc(NC(=O)c2cc(Cl)ccc2OC(C)=O)c(Cl)c1 | inactive | inactive | inactive | inactive | inactive
O=C(Nc1ccc([N+](=O)[O-])cc1)c1cc(Cl)ccc1O | Active | Active | Active | Active | Active
O=C(Nc1ccc(C(F)(F)F)cc1Cl)c1cc(Cl)ccc1O | Active | Active | Active | Active | Active
Nc1ccc(NC(=O)c2ccccc2O)cc1 | inactive |  |  |  | 
CC(=O)Oc1ccc(Cl)cc1C(=O)Nc1ccc([N+](=O)[O-])cc1Cl | Active | Active |  | Active | Active
O=C(Nc1ccc([N+](=O)[O-])cc1Cl)c1cc(Cl)ccc1O | Active | Active | Active |  | Active
O=C(Nc1ccc([N+](=O)[O-])cc1Cl)c1ccccc1 |  | inactive |  |  | 
